The numbers were not newly measured in patent publication US12648566B2, “Solid bio-pesticidal composition comprising of elemental sulphur and azadirachtin” (SML LIMITED, priority 2021, dated 2026), which cites them from elsewhere.

The structures appear in SMILES notation.

For this series the following is noted: buffer, pH 4.

For `C/C=C(\C)C(=O)O[C@H]1C[C@@H](OC(C)=O)[C@@]2(C(=O)OC)CO[C@H]3[C@@H](O)[C@@](C)([C@]45O[C@@]4(C)[C@H]4C[C@@H]5O[C@@H]5OC=C[C@@]54O)[C@H]4[C@]1(CO[C@]4(O)C(=O)OC)[C@@H]32` [Azadirachtin], the laboratory half-life was 50 to 100 days.
